Laboratory results published in US20160296499A1, “Spiroindoline Antiparasitic Derivatives” (ZOETIS SERVICES LLC, priority 2013, published 2016).
Like-named read-outs stand apart in the source and are kept apart here.

Experiments:
[1] = system: Dirofilaria immitis microfilariae; assay: Dirofilaria immitis, Microfilariae (DiMF) In Vitro Assay; details: Dirofilaria immitis
[2] = target: T1, bovine vesicular acetylcholine transporter (VAChT) (Bos taurus, UniProt E1BK36); assay: Radioligand Binding Assay; details: Bovine binding Ki, CHO-K1 membranes with recombinant bovine VAChT, [3H]Compound X6 0.3 nM
T1 sequence (E1BK36 1-524): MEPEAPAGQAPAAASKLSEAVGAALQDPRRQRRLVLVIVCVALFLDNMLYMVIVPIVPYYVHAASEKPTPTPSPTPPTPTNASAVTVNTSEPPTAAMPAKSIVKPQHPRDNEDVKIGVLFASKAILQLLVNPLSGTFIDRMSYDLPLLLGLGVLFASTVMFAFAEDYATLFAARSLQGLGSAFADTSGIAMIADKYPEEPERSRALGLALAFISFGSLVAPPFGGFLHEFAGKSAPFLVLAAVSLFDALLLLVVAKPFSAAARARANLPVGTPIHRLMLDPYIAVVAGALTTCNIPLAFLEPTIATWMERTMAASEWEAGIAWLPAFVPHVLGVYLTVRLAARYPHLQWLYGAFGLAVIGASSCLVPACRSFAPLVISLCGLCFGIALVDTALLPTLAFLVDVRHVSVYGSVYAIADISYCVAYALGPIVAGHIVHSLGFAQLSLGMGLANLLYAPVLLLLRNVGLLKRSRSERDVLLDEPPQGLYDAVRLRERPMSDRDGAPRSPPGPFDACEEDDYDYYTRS

Haemonchus contortus L3 = assay: Haemonchus contortus, Larvae Stage 3 (HcL3) In Vitro Assay; details: Haemonchus contortus
[3] = 72 h, read-out: Di MF, MEC, decrease in microfilariae motility by visual assessment, curve starting at 100 μM
[4] = 96 h, read-out: HcL3 MEC, Minimal Effective Concentration whereby worm motility is inhibited by approximately 70%, 37° C., tested 0.001-100 μM
[5] = 96 hours, 37° C., read-out: HcL3 MEC

## O=C(NCc1ccc(Cl)cc1)N1CC2(CCN(C/C=C/c3ccc(Cl)c(Cl)c3)CC2)c2c1ccc1scnc21 [Example 20, (E)-N-(4-chlorobenzyl)-1-(3-(3,4-dichlorophenyl)allyl)spiro[piperidine-4,8′-thiazolo[4,5-e]indole]-6′(7′H)-carboxamide]
[1]; [3]
  minimal effective concentration: 13.5 µM
[2]
  Ki: 2120 nM
Haemonchus contortus L3; [4]
  minimal effective concentration: 100 µM

## O=C(NCc1cnc(Cl)s1)N1CC2(CCN(C/C=C/c3ccc(Cl)c(Cl)c3)CC2)c2c1ccc1scnc21 [Example 21, (E)-N-((2-chlorothiazol-5-yl)methyl)-1-(3-(3,4-dichlorophenyl)allyl)spiro[piperidine-4,8′-thiazolo[4,5-e]indole]-6′(7′H)-carboxamide]
[1]; 72 hours, read-out: Di MF
  minimal effective concentration: 10 µM
[2]
  Ki: 105 nM
Haemonchus contortus L3; [5]
  minimal effective concentration: 69.1 µM

## O=C(NCc1cncs1)N1CC2(CCN(C/C=C/c3ccc(Cl)c(Cl)c3)CC2)c2c1ccc1scnc21 [Example 22, (E)-1-(3-(3,4-dichlorophenyl)allyl)-N-(thiazol-5-ylmethyl)spiro[piperidine-4,8′-thiazolo[4,5-e]indole]-6′(7′H)-carboxamide]
[1]; [3]
  minimal effective concentration: 10 µM
[2]
  Ki: 131 nM
Haemonchus contortus L3; [4]
  minimal effective concentration: 100 µM

## O=C(NCc1nccs1)N1CC2(CCN(C/C=C/c3ccc(Cl)c(Cl)c3)CC2)c2c1ccc1scnc21 [Example 23, (E)-1-(3-(3,4-dichlorophenyl)allyl)-N-(thiazol-2-ylmethyl)spiro[piperidine-4,8′-thiazolo[4,5-e]indole]-6′(7′H)-carboxamide]
[1]; [3]
  minimal effective concentration: 10 µM
[2]
  Ki: 205 nM
Haemonchus contortus L3; [4]
  minimal effective concentration: 100 µM

## O=C(NCc1cscn1)N1CC2(CCN(C/C=C/c3ccc(Cl)c(Cl)c3)CC2)c2c1ccc1scnc21 [Example 24, (E)-1-(3-(3,4-dichlorophenyl)allyl)-N-(thiazol-4-ylmethyl)spiro[piperidine-4,8′-thiazolo[4,5-e]indole]-6′(7′H)-carboxamide]
[1]; [3]
  minimal effective concentration: 33 µM
[2]
  Ki: 1100 nM
Haemonchus contortus L3; [4]
  minimal effective concentration: 100 µM

## O=C(NCC1CCCCC1)N1CC2(CCN(C/C=C/c3ccc(Cl)c(Cl)c3)CC2)c2c1ccc1scnc21 [Example 25, (E)-N-(cyclohexylmethyl)-1-(3-(3,4-dichlorophenyl)allyl)spiro[piperidine-4,8′-thiazolo[4,5-e]indole]-6′(7′H)-carboxamide]
[1]; [3]
  minimal effective concentration: 13.5 µM
[2]
  Ki: 7590 nM
Haemonchus contortus L3; [4]
  minimal effective concentration: 100 µM

## Cn1cc(CNC(=O)N2CC3(CCN(C/C=C/c4ccc(Cl)c(Cl)c4)CC3)c3c2ccc2scnc32)cn1 [Example 26, (E)-1-(3-(3,4-dichlorophenyl)allyl)-N-((1-methyl-1H-pyrazol-4-yl)methyl)spiro[piperidine-4,8′-thiazolo[4,5-e]indole]-6′(7′H)-carboxamide]
[1]; [3]
  minimal effective concentration: 10 µM
[2]
  Ki: 27.8 nM
Haemonchus contortus L3; [4]
  minimal effective concentration: 10 µM

## Cn1nccc1CNC(=O)N1CC2(CCN(C/C=C/c3ccc(Cl)c(Cl)c3)CC2)c2c1ccc1scnc21 [Example 27, (E)-1-(3-(3,4-dichlorophenyl)allyl)-N-((1-methyl-1H-pyrazol-5-yl)methyl)spiro[piperidine-4,8′-thiazolo[4,5-e]indole]-6′(7′H)-carboxamide]
[1]; 72 hours, read-out: Di MF
  minimal effective concentration: 10 µM
[2]
  Ki: 22.6 nM
Haemonchus contortus L3; [5]
  minimal effective concentration: 10 µM

## Cn1ccc(CNC(=O)N2CC3(CCN(C/C=C/c4ccc(Cl)c(Cl)c4)CC3)c3c2ccc2scnc32)n1 [Example 28, (E)-1-(3-(3,4-dichlorophenyl)allyl)-N-((1-methyl-1H-pyrazol-3-yl)methyl)spiro[piperidine-4,8′-thiazolo[4,5-e]indole]-6′(7′H)-carboxamide]
[1]; [3]
  minimal effective concentration: 10 µM
[2]
  Ki: 511 nM
Haemonchus contortus L3; [4]
  minimal effective concentration: 100 µM

## O=C(NCc1cocn1)N1CC2(CCN(C/C=C/c3ccc(Cl)c(Cl)c3)CC2)c2c1ccc1scnc21 [Example 29, (E)-1-(3-(3,4-dichlorophenyl)allyl)-N-(oxazol-4-ylmethyl)spiro[piperidine-4,8′-thiazolo[4,5-e]indole]-6′(7′H)-carboxamide]
[1]; [3]
  minimal effective concentration: 10 µM
[2]
  Ki: 367 nM
Haemonchus contortus L3; [4]
  minimal effective concentration: 100 µM

## CC(C)CNC(=O)N1CC2(CCN(C/C=C/c3ccc(Cl)c(Cl)c3)CC2)c2c1ccc1scnc21 [Example 31, (E)-1-(3-(3,4-dichlorophenyl)allyl)-N-isobutylspiro[piperidine-4,8′-thiazolo[4,5-e]indole]-6′(7′H)-carboxamide]
[1]; [3]
  minimal effective concentration: 3.3 µM
[2]
  Ki: 846 nM
Haemonchus contortus L3; [4]
  minimal effective concentration: 100 µM

## O=C(NCC1CC1)N1CC2(CCN(C/C=C/c3ccc(Cl)c(Cl)c3)CC2)c2c1ccc1scnc21 [Example 32, (E)-N-(cyclopropylmethyl)-1-(3-(3,4-dichlorophenyl)allyl)spiro[piperidine-4,8′-thiazolo[4,5-e]indole]-6′(7′H)-carboxamide]
[1]; [3]
  minimal effective concentration: 3.3 µM
[2]
  Ki: 136 nM
Haemonchus contortus L3; [4]
  minimal effective concentration: 100 µM

## O=C(NCC1CCCC1)N1CC2(CCN(C/C=C/c3ccc(Cl)c(Cl)c3)CC2)c2c1ccc1scnc21 [Example 33, (E)-N-(cyclopentylmethyl)-1-(3-(3,4-dichlorophenyl)allyl)spiro[piperidine-4,8′-thiazolo[4,5-e]indole]-6′(7′H)-carboxamide]
[1]; [3]
  minimal effective concentration: 10 µM
[2]
  Ki: 1640 nM
Haemonchus contortus L3; [4]
  minimal effective concentration: 100 µM

## O=C(NCc1ccnnc1)N1CC2(CCN(C/C=C/c3ccc(Cl)c(Cl)c3)CC2)c2c1ccc1scnc21 [Example 37, (E)-1-(3-(3,4-dichlorophenyl)allyl)-N-(pyridazin-4-ylmethyl)spiro[piperidine-4,8′-thiazolo[4,5-e]indole]-6′(7′H)-carboxamide]
[1]; [3]
  minimal effective concentration: 6.9 µM
[2]
  Ki: 1210 nM
Haemonchus contortus L3; [4]
  minimal effective concentration: 100 µM

## O=C(NCc1ccnc(Cl)c1)N1CC2(CCN(C/C=C/c3ccc(F)cc3)CC2)c2c1ccc1scnc21 [Example 38, (E)-N-((2-chloropyridin-4-yl)methyl)-1-(3-(4-fluorophenyl)allyl)spiro[piperidine-4,8′-thiazolo[4,5-e]indole]-6′(7′H)-carboxamide]
[1]; [3]
  minimal effective concentration: 3.3 µM
[2]
  Ki: 45.6 nM
Haemonchus contortus L3; [4]
  minimal effective concentration: 10 µM

## O=C(NCc1ccnc(Cl)c1)N1CC2(CCN(C/C=C/c3ccc(Cl)cc3)CC2)c2c1ccc1scnc21 [Example 39, (E)-1-(3-(4-chlorophenyl)allyl)-N-((2-chloropyridin-4-yl)methyl)spiro[piperidine-4,8′-thiazolo[4,5-e]indole]-6′(7′H)-carboxamide]
[1]; [3]
  minimal effective concentration: 3.3 µM
[2]
  Ki: 90 nM
Haemonchus contortus L3; [4]
  minimal effective concentration: 6.9 µM

## O=C(NCc1ccnc(Cl)c1)N1CC2(CCN(C/C=C/c3ccc(Cl)c(Cl)c3)CC2)c2c1ccc1scnc21 [Example 40, (E)-N-((2-chloropyridin-4-yl)methyl)-1-(3-(3,4-dichlorophenyl)allyl)spiro[piperidine-4,8′-thiazolo[4,5-e]indole]-6′(7′H)-carboxamide]
[1]; [3]
  minimal effective concentration: 5.7 µM
[2]
  Ki: 110 nM
Haemonchus contortus L3; [4]
  minimal effective concentration: 4.8 µM

## O=C(NCc1ccnc(Cl)c1)N1CC2(CCN(C/C=C/c3ccc(C(F)(F)F)cn3)CC2)c2c1ccc1scnc21 [Example 41, (E)-N-((2-chloropyridin-4-yl)methyl)-1-(3-(5-(trifluoromethyl)pyridin-2-yl)allyl)spiro[piperidine-4,8′-thiazolo[4,5-e]indole]-6′(7′H)-carboxamide]
[1]; [3]
  minimal effective concentration: 33 µM
[2]
  Ki: 428 nM
Haemonchus contortus L3; [4]
  minimal effective concentration: > 100 µM

## COc1ccc(/C=C/CN2CCC3(CC2)CN(C(=O)NCc2ccnc(Cl)c2)c2ccc4scnc4c23)cc1 [Example 42, (E)-N-((2-chloropyridin-4-yl)methyl)-1-(3-(4-methoxyphenyl)allyl)spiro[piperidine-4,8′-thiazolo[4,5-e]indole]-6′(7′H)-carboxamide]
[1]; [3]
  minimal effective concentration: 10 µM
[2]
  Ki: 55 nM
Haemonchus contortus L3; [4]
  minimal effective concentration: > 100 µM

## Cc1nc2c3c(ccc2s1)N(C(=O)NCc1ccnc(Cl)c1)CC31CCN(C/C=C/c2ccc(Cl)cc2)CC1 [Example 43, (E)-1-(3-(4-chlorophenyl)allyl)-N-((2-chloropyridin-4-yl)methyl)-2′-methylspiro[piperidine-4,8′-thiazolo[4,5-e]indole]-6′(7′H)-carboxamide]
[1]; [3]
  minimal effective concentration: 10 µM
[2]
  Ki: 264 nM
Haemonchus contortus L3; [4]
  minimal effective concentration: > 100 µM

## Cc1nc2c3c(ccc2s1)N(C(=O)NCc1ccnc(Cl)c1)CC31CCN(C/C=C/c2ccc(F)cc2)CC1 [Example 44, (E)-N-((2-chloropyridin-4-yl)methyl)-1-(3-(4-fluorophenyl)allyl)-2′-methylspiro[piperidine-4,8′-thiazolo[4,5-e]indole]-6′(7′H)-carboxamide]
[1]; 72 hours, read-out: Di MF
  minimal effective concentration: 10 µM
[2]
  Ki: 507 nM
Haemonchus contortus L3; [5]
  minimal effective concentration: > 100 µM
